Each structure is given as a SMILES string. pEC50: −log10 of the molar value. Where two headings read alike, the source gives them in different places.

This is an account of results in US20190367516A1 (Bayer Pharma Aktiengesellschaft, priority 2015, published 2019).

Assay [1] addresses T1, human M2 receptor (Homo sapiens, UniProt P08172).
T1 sequence (P08172 1-466): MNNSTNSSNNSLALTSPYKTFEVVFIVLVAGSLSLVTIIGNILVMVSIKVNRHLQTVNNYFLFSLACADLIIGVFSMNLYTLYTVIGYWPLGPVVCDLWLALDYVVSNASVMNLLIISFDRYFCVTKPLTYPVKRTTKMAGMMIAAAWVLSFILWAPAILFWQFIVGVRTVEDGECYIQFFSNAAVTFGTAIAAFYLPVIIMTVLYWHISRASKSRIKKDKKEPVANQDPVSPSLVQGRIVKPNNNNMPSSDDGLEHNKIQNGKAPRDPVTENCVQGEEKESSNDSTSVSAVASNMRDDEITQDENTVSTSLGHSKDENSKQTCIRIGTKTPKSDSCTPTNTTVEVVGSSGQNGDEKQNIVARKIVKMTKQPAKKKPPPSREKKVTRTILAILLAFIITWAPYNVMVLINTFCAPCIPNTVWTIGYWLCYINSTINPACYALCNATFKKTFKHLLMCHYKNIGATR
The conditions noted are these: for Emax: read-out: Efficiency, boosting of the acetylcholine effect at EC20 acetylcholine concentration; for Efficiency: boosting of the acetylcholine effect at EC20 acetylcholine concentration.

The target in assay [2] is T1, human M2 receptor. The class given is cell-based. The conditions noted are these: α >1 = positive cooperativity. As for the experimental part: B-1.2. Determination of Positive Cooperativity (α Factor)
In contrast to the EC50 determination of the test substances (see B-1.1), however, this is not done using one acetylcholine concentration; instead, every concentration of the test substance is combined with an acetylcholine 8-point dose-response curve. […] The shift in the acetylcholine dose-response curve in the presence of increasing concentrations of the test substance is analysed and quantified by means of GraphPad PRISM (Allosteric EC50 shift). […] Positive cooperativity is the hallmark of a positive allosteric modulator. […] The greater the magnitude of the α value, the greater the extent of cooperativity between orthosteric and allosteric.

The mark [3] stands for this setting: Receptor activity EC50, allosteric potency at EC20 acetylcholine, M2-GIRK1/4 reporter cells, in some cases mean of two or more determinations.
Setting [4] is: shift of acetylcholine dose-response curve (Allosteric EC50 shift).
The mark [5] stands for this setting: Receptor activity EC50, M2-GIRK1/4 activation test, acetylcholine at EC20, allosteric potency, in some cases mean values from two or more determinations.
The mark [6] stands for this setting: shift in the acetylcholine dose-response curve (Allosteric EC50 shift, GraphPad PRISM).

Broadly, the pEC50 is −log10 of the EC50, conventionally taken in molar units. The low end stands for a high EC50, the high end for a low EC50. With `CCC(COC(F)(F)F)NC(=O)c1cn(-c2c(F)cc(F)cc2F)c2nc(N3C[C@@H](O)CC3=O)ccc2c1=O` (mixture of isomers) [Example 410, 7-[(4S)-4-Hydroxy-2-oxopyrrolidin-1-yl]-4-oxo-N-[1-(trifluoromethoxy)butan-2-yl]-1-(2,4,6-trifluorophenyl)-1,4-dihydro-1,8-naphthyridine-3-carboxamide], the pEC50 on human M2 receptor [1] (setting [3]) was 8.05. In addition, the Emax at human M2 receptor [1] (M2-GIRK1/4 reporter cells) amounted to 87%. Also, the “Cooperativity (alpha factor)” value at human M2 receptor [2] (setting [4]) was determined as 36.

`CC1CCN(c2ccc3c(=O)c(C(=O)N[C@@H](C)C(F)(F)F)cn(-c4c(F)cc(F)cc4Cl)c3n2)C1=O` (mixture of isomers) [Example 418, 1-(2-Chloro-4,6-difluorophenyl)-7-[3-methyl-2-oxopyrrolidin-1-yl]-4-oxo-N-[(2S)-1,1,1-trifluoropropan-2-yl]-1,4-dihydro-1,8-naphthyridine-3-carboxamide]: on human M2 receptor [1] (setting [3]), the pEC50 is 7.77. For the same compound, the Emax on human M2 receptor [1] (M2-GIRK1/4 reporter cells) was 89%. The “Cooperativity (alpha factor)” value at human M2 receptor [2] (setting [4]) is recorded as 7.

`CC[C@H](NC(=O)c1cn(-c2c(F)cc(F)cc2Cl)c2nc(N3CCC(C)C3=O)ccc2c1=O)C(F)(F)F` (mixture of isomers) [Example 422, 1-(2-Chloro-4,6-difluorophenyl)-7-[3-methyl-2-oxopyrrolidin-1-yl]-4-oxo-N-[(2S)-1,1,1-trifluorobutan-2-yl]-1,4-dihydro-1,8-naphthyridine-3-carboxamide]: the pEC50 at human M2 receptor [1] (setting [3]) was 8.22. Further, the Emax on human M2 receptor [1] (M2-GIRK1/4 reporter cells) came to 79%. The “Cooperativity (alpha factor)” value on human M2 receptor [2] (setting [4]) worked out at 16.

On human M2 receptor [1] (setting [3]), `CCC1CCN(c2ccc3c(=O)c(C(=O)N[C@@H](C4CC4)C(F)(F)F)cn(-c4c(F)cc(F)cc4F)c3n2)C(=O)N1` (mixture of isomers) [Example 446, N-[(1 S)-1-Cyclopropyl-2,2,2-trifluoroethyl]-7-[4-ethyl-2-oxotetrahydropyrimidin-1(2H)-yl]-4-oxo-1-(2,4,6-trifluorophenyl)-1,4-dihydro-1,8-naphthyridine-3-carboxamide] showed a negative-log EC50 (pEC50) of 7.30. The Emax at human M2 receptor [1] (M2-GIRK1/4 reporter cells) came out at 85%. Moreover, the “Cooperativity (alpha factor)” value at human M2 receptor [2] (setting [4]) is on record as 21.

Compound `CCC(NC(=O)c1cn(-c2c(F)cc(F)cc2F)c2nc(N3C[C@@H](O)CC3=O)ccc2c1=O)C(C)C` (mixture of isomers) [Example 484, 7-[(4S)-4-Hydroxy-2-oxopyrrolidin-1-yl]-N-[2-methylpentan-3-yl]-4-oxo-1-(2,4,6-trifluorophenyl)-1,4-dihydro-1,8-naphthyridine-3-carboxamide] had a negative-log EC50 (pEC50) on human M2 receptor [1] (setting [3]) of 8.22. At human M2 receptor [1] (M2-GIRK1/4 reporter cells), the Emax was found to be 99.5%. Moreover, the “Cooperativity (alpha factor)” value at human M2 receptor [2] (setting [4]) is listed as 44.

On human M2 receptor [1] (setting [3]), `CC(C)C(NC(=O)c1cn(-c2c(F)cc(F)cc2F)c2nc(N3CCNC3=O)ccc2c1=O)C(F)(F)F` (racemic) [Example 537, 4-Oxo-7-(2-oxoimidazolidin-1-yl)-N-[1,1,1-trifluoro-3-methylbutan-2-yl]-1-(2,4,6-trifluorophenyl)-1,4-dihydro-1,8-naphthyridine-3-carboxamide] gave a negative logarithm of the EC50 (pEC50) of 8.00. For the same compound, the Efficiency at human M2 receptor [1] (M2-GIRK1/4 reporter cells) came to 92.0%. In addition, on human M2 receptor [2] (setting [4]), the “Cooperativity (alpha factor)” value is 31.

On to `CC(C)C(NC(=O)c1cn(-c2c(F)cc(F)cc2F)c2nc(N3CCNC3=O)ccc2c1=O)C(F)(F)F` (racemic) [Example 538, 4-Oxo-7-(2-oxoimidazolidin-1-yl)-N-[1,1,1-trifluoro-3-methylbutan-2-yl]-1-(2,4,6-trifluorophenyl)-1,4-dihydro-1,8-naphthyridine-3-carboxamide], for which the pEC50 on human M2 receptor [1] (setting [3]) was 8.15. The compound further registered an Efficiency on human M2 receptor [1] (M2-GIRK1/4 reporter cells) of 100.0%. Moreover, the “Cooperativity (alpha factor)” value at human M2 receptor [2] (setting [4]) is reported as 40.

Take `CC(NC(=O)c1cn(-c2c(F)cc(F)cc2F)c2nc(N3CCNC3=O)ccc2c1=O)C(F)(F)C(F)(F)F` (racemic) [Example 542, 4-Oxo-7-(2-oxoimidazolidin-1-yl)-N-[3,3,4,4,4-pentafluorobutan-2-yl]-1-(2,4,6-trifluorophenyl)-1,4-dihydro-1,8-naphthyridine-3-carboxamide]: at human M2 receptor [1] (setting [3]), the negative-log EC50 (pEC50) was 7.72. Moreover, the Efficiency at human M2 receptor [1] (M2-GIRK1/4 reporter cells) amounted to 98.5%. Moreover, the “Cooperativity (alpha factor)” value at human M2 receptor [2] (setting [4]) was determined as 36.

As for `CC(C)(CC(F)(F)F)NC(=O)c1cn(-c2c(F)cc(F)cc2F)c2nc(N3CC(O)C4(CC4)C3)ccc2c1=O` (racemic) [Example 571, 7-[7-Hydroxy-5-azaspiro[2.4]hept-5-yl]-4-oxo-N-(4,4,4-trifluoro-2-methylbutan-2-yl)-1-(2,4,6-trifluorophenyl)-1,4-dihydro-1,8-naphthyridine-3-carboxamide], on human M2 receptor [1] (M2-GIRK1/4 reporter cells), the Efficiency amounted to 94.0%. Moreover, the “Cooperativity (alpha factor)” value on human M2 receptor [2] (setting [4]) was determined as 33.

`CC[C@@H](NC(=O)c1cn(-c2ccc(F)cc2F)c2nc(N3CCC(C)(OC)C3=O)ccc2c1=O)C(F)(F)F` (single isomer, unassigned) [Example 198] showed a negative-log EC50 (pEC50) on human M2 receptor [1] (setting [5]) of 6.95. Also, on human M2 receptor [2] (setting [6]), the “Cooperativity (alpha factor)” value was determined as 13.

In the case of `CC[C@@H](NC(=O)c1cn(-c2ccc(F)cc2F)c2nc(N3CCC(C)(OC)C3=O)ccc2c1=O)C(F)(F)F` (single isomer, unassigned) [Example 199], the pEC50 at human M2 receptor [1] (setting [5]) is 6.58. Moreover, on human M2 receptor [2] (setting [6]), the “Cooperativity (alpha factor)” value was found to be 15.

`O=C(N[C@H](c1ccccc1Cl)C(F)(F)F)c1cn(-c2ccc(F)cc2F)c2nc(N3CCCC(O)C3=O)ccc2c1=O` (single isomer, unassigned) [Example 207] showed a pEC50 on human M2 receptor [1] (setting [5]) of 7.46. In addition, the “Cooperativity (alpha factor)” value at human M2 receptor [2] (setting [6]) is 18.

Take `O=C(N[C@H](c1ccccc1Cl)C(F)(F)F)c1cn(-c2ccc(F)cc2F)c2nc(N3CCCC(O)C3=O)ccc2c1=O` (single isomer, unassigned) [Example 208]: the pEC50 on human M2 receptor [1] (setting [5]) is 6.94. Further, on human M2 receptor [2] (setting [6]), the “Cooperativity (alpha factor)” value was found to be 23.

Consider `CC(NC(=O)c1cn(-c2ccc(F)cc2F)c2nc(N3C[C@@H](O)CC3=O)ccc2c1=O)c1c(F)cccc1F` (single isomer, unassigned) [Example 216], for which, on human M2 receptor [1] (setting [5]), the negative-log EC50 (pEC50) was 7.05. The “Cooperativity (alpha factor)” value at human M2 receptor [2] (setting [6]) worked out at 35.

In turn, `CC[C@H](NC(=O)c1cn(-c2ccc(F)cc2F)c2nc(N3CCC(O)C3)ccc2c1=O)C(F)(F)F` (single isomer, unassigned) [Example 219] gave a pEC50 on human M2 receptor [1] (setting [5]) of 6.97. In addition, the “Cooperativity (alpha factor)” value on human M2 receptor [2] (setting [6]) was 33.

As to `CC[C@H](NC(=O)c1cn(-c2ccc(F)cc2F)c2nc(N3CCC(O)C3)ccc2c1=O)C(F)(F)F` (single isomer, unassigned) [Example 220], the pEC50 at human M2 receptor [1] (setting [5]) is 6.94. Besides, the “Cooperativity (alpha factor)” value at human M2 receptor [2] (setting [6]) is given as 29.

As to `CC[C@@H](NC(=O)c1cn(-c2ccc(F)cc2F)c2nc(N3CC4CNC(=O)C4C3)ccc2c1=O)C(F)(F)F` (single isomer, unassigned) [Example 223], the negative logarithm of the EC50 (pEC50) on human M2 receptor [1] (setting [5]) was 7.08. Further, the “Cooperativity (alpha factor)” value at human M2 receptor [2] (setting [6]) stood at 30.

`CC[C@@H](NC(=O)c1cn(-c2ccc(F)cc2F)c2nc(N3CCC(O)C3=O)ccc2c1=O)C(F)(F)F` (single isomer, unassigned) [Example 225] gave a pEC50 at human M2 receptor [1] (setting [5]) of 6.44. The “Cooperativity (alpha factor)” value at human M2 receptor [2] (setting [6]) came to 33.

The compound `CC[C@@H](NC(=O)c1cn(-c2ccc(F)cc2F)c2nc(N3CCC(O)C3=O)ccc2c1=O)C(F)(F)F` (single isomer, unassigned) [Example 226] showed a pEC50 on human M2 receptor [1] (setting [5]) of 7.08. On human M2 receptor [2] (setting [6]), the “Cooperativity (alpha factor)” value was found to be 35.

Consider `CC(COC(F)(F)F)NC(=O)c1cn(-c2ccc(F)cc2F)c2nc(N3CC[C@H](F)C3)ccc2c1=O` (single isomer, unassigned) [Example 228], for which, on human M2 receptor [1] (setting [5]), the negative logarithm of the EC50 (pEC50) is 7.29. For the same compound, the “Cooperativity (alpha factor)” value at human M2 receptor [2] (setting [6]) was 12.

The compound `CC(COC(F)(F)F)NC(=O)c1cn(-c2ccc(F)cc2F)c2nc(N3CC[C@H](F)C3)ccc2c1=O` (single isomer, unassigned) [Example 229] showed a pEC50 on human M2 receptor [1] (setting [5]) of 7.28. For the same compound, on human M2 receptor [2] (setting [6]), the “Cooperativity (alpha factor)” value was 13.

`O=C(NC(c1c(F)cccc1F)C(F)(F)F)c1cn(-c2ccc(F)cc2F)c2nc(N3CC[C@H](F)C3)ccc2c1=O` (single isomer, unassigned) [Example 242] gave a negative-log EC50 (pEC50) on human M2 receptor [1] (setting [5]) of 7.05. In addition, the “Cooperativity (alpha factor)” value at human M2 receptor [2] (setting [6]) was found to be 10.

`O=C(NC(c1c(F)cccc1F)C(F)(F)F)c1cn(-c2ccc(F)cc2F)c2nc(N3CC[C@H](F)C3)ccc2c1=O` (single isomer, unassigned) [Example 243] had a negative logarithm of the EC50 (pEC50) on human M2 receptor [1] (setting [5]) of 7.82. The “Cooperativity (alpha factor)” value at human M2 receptor [2] (setting [6]) came out at 33.

Take `O=C(NC(c1c(F)cccc1F)C(F)(F)F)c1cn(-c2ccc(F)cc2F)c2nc(N3C[C@@H](O)CC3=O)ccc2c1=O` (single isomer, unassigned) [Example 245]: at human M2 receptor [1] (setting [5]), the pEC50 was 6.95. Besides, at human M2 receptor [2] (setting [6]), the “Cooperativity (alpha factor)” value amounted to 42.
